Usually pIC50 stands for −log10 of the IC50, conventionally taken in molar units.

pIC50: −log10 of the molar value. Where a name gives a salt, the structure may show the parent alone.

The target of the experiment is T1, PRS (prolyl-tRNA synthetase) (Homo sapiens, UniProt P07814).
T1 construct: the portion corresponding to PRS in cDNA of EPRS was subcloned; made in house
T1 sequence (P07814 1007-1512 limits assumed): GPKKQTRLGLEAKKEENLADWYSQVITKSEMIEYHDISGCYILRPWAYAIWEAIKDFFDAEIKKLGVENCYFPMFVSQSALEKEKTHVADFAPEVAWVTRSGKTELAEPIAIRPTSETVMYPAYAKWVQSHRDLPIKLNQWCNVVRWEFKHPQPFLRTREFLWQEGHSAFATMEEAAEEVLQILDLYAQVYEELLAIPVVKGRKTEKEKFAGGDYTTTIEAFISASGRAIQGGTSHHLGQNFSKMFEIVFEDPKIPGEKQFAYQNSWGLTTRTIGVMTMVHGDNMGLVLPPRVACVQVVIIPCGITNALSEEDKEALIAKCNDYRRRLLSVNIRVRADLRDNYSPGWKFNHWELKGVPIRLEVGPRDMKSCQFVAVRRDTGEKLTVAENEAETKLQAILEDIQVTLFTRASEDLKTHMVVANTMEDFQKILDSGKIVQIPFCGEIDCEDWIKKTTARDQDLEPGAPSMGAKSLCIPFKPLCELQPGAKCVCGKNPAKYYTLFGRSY
The experiment is described as follows: In vitro PRS enzyme activity inhibition experiment ([3H]proline, liquid scintillation). In kind it is biochemical. The following applies: purified PRS protein subcloned from EPRS cDNA; 37° C., 5 to 10 minutes; read-out: PRS IC50. The protocol:
In order to confirm the biological activities of the compounds prepared in Examples, % inhibition or IC50 values of PRS enzyme ([…]) activities were calculated.
Specifically, the portion corresponding to PRS in cDNA of EPRS was subcloned, and the obtained high-purity PRS protein was purified and used in the experiment. The compounds (1 μM) prepared in Examples were added into the reaction buffer (20 mM KPO4 (pH 7.4), 6 mM MgAc, 5 mM ATP, […] tRNA, 0.5 mM DTT, 20 mCi[^3H]proline (1 mCi/mL)) and allowed to react at 37° C. for 5 to 10 minutes. The reaction was terminated with 3M paper that was previously dried by addition of 5% TCA. The radioactivity was measured using a liquid scintillation counter.
IC50 values of the respective compounds were calculated and analyzed using Microsoft Excel or Sigma Plot 8.0. In Table 1, the results are divided into A, B and C according to the range of IC50. The case where the derived IC50 is 100 nM or less is represented by “A”, the case where the IC50 is 100 to 500 nM is represented by “B”, and the case where the IC50 is 500 nM or higher is represented by “C”.
With `O=C(C[C@H]1NCCC[C@@H]1O)Cn1cnc2nc(Br)ccc21` [Example 29, 1-(5-bromo-1H-imidazo[4,5-b]pyridin-1-yl)-3-((2R,3S)-3-hydroxypiperidin-2-yl)propan-2-one], the pIC50 is below 6.30.
As for `O=C(C[C@H]1NCCC[C@@H]1O)Cn1cnc2ncc(Br)cc21` [Example 31, 1-(6-bromo-1H-imidazo[4,5-b]pyridin-1-yl)-3-((2R,3S)-3-hydroxypiperidin-2-yl)propan-2-one], the pIC50 was below 6.30.
Take `O=C(C[C@H]1NCCC[C@@H]1O)Cn1cnc2cccnc21` [Example 34, 1-((2R,3S)-3-hydroxypiperidin-2-yl)-3-(3H-imidazo[4,5-b]pyridin-3-yl)propan-2-one]: the pIC50 was 6.30 to 7.00.
Next, `O=C(C[C@H]1NCCC[C@@H]1O)Cn1cnc2c(Cl)cc(Cl)nc21` [Example 41, 1-(5,7-dichloro-3H-imidazo[4,5-b]pyridin-3-yl)-3-((2R,3S)-3-hydroxypiperidin-2-yl)propan-2-one]: above 7.00; `O=C(C[C@H]1NCCC[C@@H]1O)Cn1cnc2cc(C(=O)O)ncc21` [Example 43, 3-(3-((2R,3S)-3-hydroxypiperidin-2-yl)-2-oxopropyl)-3H-imidazo[4,5-c]pyridine-6-carboxylic acid hydrochloride salt]: below 6.30.
Consider `O=C(C[C@H]1NCCC[C@@H]1O)Cn1cnc2c(Cl)ncnc21` [Example 44, 1-(6-chloro-9H-purin-9-yl)-3-((2R,3S)-3-hydroxypiperidin-2-yl)propan-2-one hydrochloride salt], for which the pIC50 was below 6.30.
Next, `O=C(C[C@H]1NCCC[C@@H]1O)Cn1cnc2c1CCCC2` [Example 45, 1-((2R,3S)-3-hydroxypiperidin-2-yl)-3-(4,5,6,7-tetrahydro-1H-benzo[d]imidazol-1-yl)propan-2-one]: 6.30 to 7.00; `Cc1nc2c(F)c(F)ccc2n1CC(=O)C[C@H]1NCCC[C@@H]1O` [Example 47, 1-(4,5-difluoro-2-methyl-1H-benzo[d]imidazol-1-yl)-3-((2R,3S)-3-hydroxypiperidin-2-yl)propan-2-one]: below 6.30.
For the compound `Cc1nc2ncccc2n1CC(=O)C[C@H]1NCCC[C@@H]1O` [Example 49, 1-((2R,3S)-3-hydroxypiperidin-2-yl)-3-(2-methyl-1H-imidazo[4,5-b]pyridin-1-yl)propan-2-one], the pIC50 is below 6.30.
Next, `O=C(C[C@H]1NCCC[C@@H]1O)Cn1c(CCO)nc2ccc(F)cc21` [Example 53, 1-(6-fluoro-2-(2-hydroxyethyl)-1H-benzo[d]imidazol-1-yl)-3-((2R,3S)-3-hydroxypiperidin-2-yl)propan-2-one]: below 6.30.
For `C[C@@H](O)c1nc2ccccc2n1CC(=O)C[C@H]1NCCC[C@@H]1O` [Example 54, 1-(2-((R)-1-hydroxyethyl)-1H-benzo[d]imidazol-1-yl)-3-((2R,3S)-3-hydroxypiperidin-2-yl)propan-2-one], the negative-log IC50 (pIC50) is below 6.30.
Next, `C[C@H](O)c1nc2ccccc2n1CC(=O)C[C@H]1NCCC[C@@H]1O` [Example 55, 1-(2-((S)-1-hydroxyethyl)-1H-benzo[d]imidazol-1-yl)-3-((2R,3S)-3-hydroxypiperidin-2-yl)propan-2-one]: below 6.30.
Next, `COCc1nc2cc(Cl)c(Cl)cc2n1CC(=O)C[C@H]1NCCC[C@@H]1O` [Example 63, 1-(5,6-dichloro-2-(methoxymethyl)-1H-benzo[d]imidazol-1-yl)-3-((2R,3S)-3-hydroxypiperidin-2-yl)propan-2-one]: below 6.30; `O/N=C(/C[C@H]1NCCC[C@@H]1O)Cn1cnc2cc(Cl)c(Cl)cc21` [Example 64, 1-(5,6-dichloro-1H-benzo[d]imidazol-1-yl)-3-((2R,3S)-3-hydroxypiperidin-2-yl)propan-2-one oxime]: below 6.30; `OCc1nc2cc(Cl)c(Cl)cc2n1C/C(C[C@H]1NCCC[C@@H]1O)=N/O` [Example 65, 1-(5,6-dichloro-2-(hydroxymethyl)-1H-benzo[d]imidazol-1-yl)-3-((2R,3S)-3-hydroxypiperidin-2-yl)propan-2-one oxime]: below 6.30.
Next, `O/N=C(/C[C@H]1NCCC[C@@H]1O)Cn1cnc2ncc(Br)cc21` [Example 66, 1-(6-bromo-1H-imidazo[4,5-b]pyridin-1-yl)-3-((2R,3S)-3-hydroxypiperidin-2-yl)propan-2-one oxime]: below 6.30; `CO/N=C(/C[C@H]1NCCC[C@@H]1O)Cn1cnc2cc(Cl)c(Cl)cc21` [Example 67, 1-(5,6-dichloro-1H-benzo[d]imidazol-1-yl)-3-((2R,3S)-3-hydroxypiperidin-2-yl)propan-2-one O-methyl oxime]: below 6.30; `O=C(C[C@H]1NCCC[C@@H]1O)Cn1c(CO)nc2ncccc21` [Example 68, 1-(2-(hydroxymethyl)-1H-imidazo[4,5-b]pyridin-1-yl)-3-((2R,3S)-3-hydroxypiperidin-2-yl)propan-2-one]: 6.30 to 7.00.
In the case of `OC(C[C@H]1NCCC[C@@H]1O)Cn1cnc2c(C(F)(F)F)c(Br)ccc21` (stereo partly drawn) [Example 72, (2R,3S)-2-(3-(5-bromo-4-(trifluoromethyl)-1H-benzo[d]imidazol-1-yl)-2-hydroxypropyl)piperidin-3-ol], the pIC50 is below 6.30.
As for `Cc1ccc2c(ncn2CC(O)C[C@H]2NCCC[C@@H]2O)c1Br` (stereo partly drawn) [Example 73, (2R,3S)-2-(3-(4-bromo-5-methyl-1H-benzo[d]imidazol-1-yl)-2-hydroxypropyl)piperidin-3-ol], the pIC50 is below 6.30.
Regarding `OC(C[C@H]1NCCC[C@@H]1O)Cn1cnc2c(F)c(Br)ccc21` (stereo partly drawn) [Example 74, (2R,3S)-2-(3-(5-bromo-4-fluoro-1H-benzo[d]imidazol-1-yl)-2-hydroxypropyl)piperidin-3-ol], the pIC50 is below 6.30.
Next, `OC(C[C@H]1NCCC[C@@H]1O)Cn1cnc2c(Cl)c(Cl)ccc21` (stereo partly drawn) [Example 75, (2R,3S)-2-(3-(4,5-dichloro-1H-benzo[d]imidazol-1-yl)-2-hydroxypropyl)piperidin-3-ol]: below 6.30; `Cc1c(Cl)ccc2c1ncn2CC(O)C[C@H]1NCCC[C@@H]1O` (stereo partly drawn) [Example 76, (2R,3S)-2-(3-(5-chloro-4-methyl-1H-benzo[d]imidazol-1-yl)-2-hydroxypropyl)piperidin-3-ol]: below 6.30; `Cc1c(Cl)cnc2c1ncn2CC(O)C[C@H]1NCCC[C@@H]1O` (stereo partly drawn) [Example 77, (2R,3S)-2-(3-(6-chloro-7-methyl-3H-imidazo[4,5-b]pyridin-3-yl)-2-hydroxypropyl)piperidin-3-ol]: below 6.30.
Next, `OC(C[C@H]1NCCC[C@@H]1O)Cn1cnc2c(Cl)c(Br)cnc21` (stereo partly drawn) [Example 79, (2R,3S)-2-(3-(6-bromo-7-chloro-3H-imidazo[4,5-b]pyridin-3-yl)-2-hydroxypropyl)piperidin-3-ol]: 6.30 to 7.00; `Cc1c(Br)ccc2c1ncn2CC(O)(C[C@H]1NCCC[C@@H]1O)C(F)(F)F` (stereo partly drawn) [Example 85, (2R,3S)-2-(2-((5-bromo-4-methyl-1H-benzo[d]imidazol-1-yl)methyl)-3,3,3-trifluoro-2-hydroxypropyl)piperidin-3-ol]: below 6.30.
Next, `CNC(C[C@H]1NCCC[C@@H]1O)Cn1cnc2cc(Cl)c(Cl)cc21` (stereo partly drawn) [Example 86, (2R,3S)-2-(3-(5,6-dichloro-1H-benzo[d]imidazol-1-yl)-2-(methylamino)propyl)piperidin-3-ol]: below 6.30; `O=C(C[C@H]1NCCC[C@@H]1O)Cn1ccc2cc(Cl)cnc21` [Example 91, 1-(5-chloro-1H-pyrrolo[2,3-b]pyridin-1-yl)-3-((2R,3S)-3-hydroxypiperidin-2-yl)propan-2-one]: 6.30 to 7.00.
On to `O=C(C[C@H]1NCCC[C@@H]1O)Cn1ncc2cc(Cl)ccc21` [Example 96, 1-(5-chloro-1H-indazol-1-yl)-3-((2R,3S)-3-hydroxypiperidin-2-yl)propan-2-one], for which the pIC50 is below 6.30.
Next, `Cc1ccc2c(cnn2CC(=O)C[C@H]2NCCC[C@@H]2O)c1Br` [Example 97, 1-(4-bromo-5-methyl-1H-indazol-1-yl)-3-((2R,3S)-3-hydroxypiperidin-2-yl)propan-2-one]: 6.30 to 7.00; `O=C(C[C@H]1NCCC[C@@H]1O)Cn1ncc2cc(Cl)cnc21` [Example 98, 1-(5-chloro-1H-pyrazolo[3,4-b]pyridin-1-yl)-3-((2R,3S)-3-hydroxypiperidin-2-yl)propan-2-one]: below 6.30.
